What all share (assay): DTP human tumour cell line panel, 48 h
Test [1] deals with DLD-1 colon.
Test [2] has as its system KM20L2 colon.
The test system of test [3] is LXFL 529 NSCLC.
In test [4] the test system is M19-MEL melanoma.
The test system of test [5] is RXF-631 renal.
Test [6] deals with XF 498 CNS.
For test [7], the system named is MDA-N.
The subject of test [8] is DMS 273 small cell lung.
The subject of test [9] is SNB-78 CNS.

“And” between values parts separate entries of the source, which are not always exact repeats. Equal entries are not always repeated.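 Each compound was tested at five concentrations against cells in 96-well plates for 48 hours. Abbreviation: GI50, concentration required for 50% inhibition of growth. TGI marks complete inhibition of growth.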

The record followed here is PubChem BioAssay (NCI).

As usually defined, the TGI is the concentration giving total growth inhibition. Low readings indicate greater sensitivity of the cells, high ones lower sensitivity of the cells. As a reminder, the GI50 is the concentration giving 50% growth inhibition.

Take `CCOC(=O)/C(C1=NCCN1)=C(\O)c1ccccc1`: the TGI in test [1], in test [2], in test [3], in test [4], in test [5] and in [6] was greater than 100 µM each time.

`COc1cc(OC)c2nc(C)c3c(c2c1)SCC3`: the TGI in test [7] turned out to be 85 µM.

In the case of `CC1(C)CC(O)C(C)(C)[C@@H](O)C1` (stereo partly drawn), the TGI in test [7] was greater than 100 µM.

Consider `OC1(C23CC4CC(CC(C4)C2)C3)CSCC1(O)C12CC3CC(CC(C3)C1)C2` (stereo not drawn), for which the TGI in test [1], in [8], in test [3], in [4], in [5] and in [9] was greater than 100 µM throughout. The molecule also came in with a TGI in [6] greater than 100 µM.

Consider `CC[C@@]1(O)C(=O)OCc2c1cc1n(c2=O)Cc2cc3cc4c(cc3nc2-1)OCO4`, for which the GI50 in test [1] was 0.112 µM; in test [2], 0.0569 µM; in test [6], 0.114 µM. Further, the TGI is greater than 100 µM in [1]; 0.195 µM in test [8]; greater than 100 µM in test [2]; 0.375 µM in [3]; 0.262 µM and 0.18 µM in [4]; 0.461 µM and 0.657 µM in [6].

Consider `NC(=O)CN(CC(N)=O)C(N)=O`, for which the concentration for total growth inhibition (TGI) in test [8], in [2], in test [3], in test [4], in [9] and in test [6] was greater than 100 µM in each case.

`CCOC(=O)CCC(NC(=O)OCc1ccccc1)C(=O)NC(CCC(=O)OCC)C(=O)NC(CCC(=O)OCC)C(=O)NC(CCC(=O)OCC)C(=O)NC(CCC(=O)OCC)C(=O)NC(CCC(=O)OCC)C(=O)NC(CCC(=O)OCC)C(=O)OCC` (stereo not drawn) had a TGI in test [7] greater than 100 µM.

Regarding `Cc1ccc2c(c1)-c1c3c(nn1-c1ccccc1)-c1ccccc1SC3O2` (stereo not drawn), the TGI in test [1] was greater than 100 µM; in test [8], greater than 100 µM; in [2], greater than 100 µM; in test [3], greater than 100 µM; in test [5], 16.1 µM; in [9], greater than 100 µM. Moreover, in test [6], the TGI is greater than 100 µM.

In [7], `COc1cc(OC)c(C/C=C/c2ccccc2)cc1O` yielded a TGI of 38.8 µM.

`C/C(=N/NC(=S)N1CCCCC1)c1ccccc1O` gave a TGI in test [7] greater than 31.6 µM.

Turning to `C[C@@]12CCC(=O)c3coc(c31)C(=O)c1cc3c(cc12)C(=O)C=CC3=O`, the GI50 in test [1], in [8], in test [2], in test [3], in [4] and in [9] was greater than 1 µM throughout. In addition, the GI50 in [6] is greater than 1 µM. Moreover, the TGI in test [1] is > 1 µM and 30.5 µM; in test [8], > 1 µM and 30 µM; in test [2], greater than 100 µM; in test [3], > 1 µM and 31.3 µM; in [4] it was > 1 µM and 15.7 µM; in [9] it was > 1 µM and 47.8 µM. Also, in [6], the total growth inhibition concentration (TGI) was > 1 µM and 33.4 µM.

Turning to `Cc1cc(NC(=O)NC(=O)c2ccccc2NC(=O)C(C)N)ccc1Oc1ncc(Br)cn1` (stereo not drawn), the TGI was greater than 100 µM in test [1]; greater than 32.7 µM in test [8]; 0.459 µM in [2]; greater than 100 µM in test [3]; greater than 100 µM in [4]; 0.148 µM in test [7]. The molecule further came in with a TGI in test [9] of 92.6 µM.

As for `COc1ccc2c(c1)C(=O)c1ccc(OC)cc1C2=S`, the concentration for total growth inhibition (TGI) in test [1], in test [8], in [2], in [4], in test [9] and in [6] was greater than 100 µM in each case.

As for `CCCCCCCCCCCCCCCC(=O)OCC1OC(n2cc(F)c(=O)[nH]c2=O)C(N)C(O)C1O` (stereo not drawn), the TGI in [1] was 37.1 µM; in [2] it was 30.9 µM; in [3], 34.3 µM; in test [4], 33.6 µM; in test [6] it was 33.5 µM.

In test [7], `NC(=O)N/N=C1/CCC(O)CC1CC(=O)O` (stereo not drawn) registered a TGI greater than 100 µM.

In the case of `CC(C)CCCC(C)[C@H]1CCC2[C@@H]3CCC4Cc5nc6c(nc5C[C@]4(C)C3CC[C@@]21C)CC1CC[C@@H]2C(CC[C@@]3(C)C2CC[C@@H]3C(C)CCCC(C)C)[C@@]1(C)C6` (stereo partly drawn), the TGI in test [7] is greater than 100 µM.

For `CC(CN(C)C)/C(=N\Nc1ccccc1)c1ccccc1` (stereo not drawn), the concentration for total growth inhibition (TGI) in test [1] is greater than 100 µM; in test [8], 12.1 µM; in test [2], 0.333 µM; in test [4] it was 14.5 µM; in test [9], 83 µM.

Turning to `CC1=NN(C(=O)c2ccccc2O)C(=O)/C1=C/c1ccc(O)cc1`, the TGI in test [1], in [2], in test [3], in [7] and in test [9] was greater than 100 µM in each case.

`O=[N+]([O-])c1ccc(-n2nnc(C3=NCCN3)c2-c2ccccc2)cc1`: the TGI in test [1], in test [8], in test [2], in [3], in test [4] and in test [9] was greater than 100 µM in each case. The TGI in [6] was greater than 100 µM.

Consider `CC(=O)[CH-]C(=O)c1ccccc1.CC(=O)[CH-]C(=O)c1ccccc1.CC[O-].CC[O-].[Hf+4]`, for which the GI50 in test [1], in test [2] and in test [3] was greater than 100 µM throughout. For the same molecule, the total growth inhibition concentration (TGI) in test [1], in test [2] and in test [3] was greater than 100 µM in each case.

As for `O=C1/C(=C/c2ccccc2)CN(C(=O)CCN2CCOCC2)C/C1=C\c1ccccc1`, the TGI in test [1] was determined as 4.28 µM; in test [8], 4.04 µM; in test [2] it was 3.9 µM; in test [3] it was 6.35 µM; in [4] it was 4.06 µM; in test [7], 4.07 µM. In addition, the TGI came to 20.9 µM in [5] and 27.1 µM in test [9].

Regarding `COC(C(=O)NN)c1ccccc1` (stereo not drawn), the TGI in test [7] was greater than 100 µM.

For the molecule `CSc1nnc(CCC(=O)Nc2c(C)cccc2C)o1`, the TGI in [1], in [2], in test [3], in test [4], in test [5] and in [9] was greater than 100 µM in each case. For the same molecule, in test [6], the TGI is greater than 100 µM.

Take `N/N=C(/C(=O)Nc1cccc(Cl)c1)C(C(=O)c1ccc(O)cc1O)C1OC(=O)c2ccccc21` (stereo not drawn): the TGI in test [8], in test [2], in test [3], in test [4] and in [9] was greater than 100 µM each time.
